Measurements published in patent US4761408A, “Crystalline aminomethyl compound” (priority 1984, dated 1988).
Values after ≈ are worked out from the molar mass of the structure shown.

How the values were obtained:
[1] = test system: Streptococcus pyrogenes Aronson 1129; experiment: in vitro MIC; assay type: cell-based; details: ARONSON1129
[2] = test system: Escheichia coli 205 R + TEM; experiment: in vitro MIC; assay type: cell-based; details: read-out: in vitro MIC
[3] = test system: Staphylococcus aureus, Escherichia coli or Streptococcus pyogenes; experiment: systemic infection of mice; assay type: in vivo; details: sc, parenteral, such as subcutaneous, administration
[4] = stability to the enzyme dehydropeptidase from human kidneys; assay type: in vitro ADME; details: kidney dehydropeptidase, read-out: t1/2 (stability to dehydropeptidase) (converted)
Text: Compounds A and B have the following stability (expressed in half-life periods t1/2) to the enzyme dehydropeptidase from human kidneys: […]

[5] = Determination of the thermal stability (50°, HPLC penem content); assay type: physicochemical
Experimental: In order to determine the thermal stability, samples of crystalline (5R,6S)-2-aminomethyl-6-[(1R)-1-hydroxyethyl)-2-penem-3-carboxylic acid and amorphous racemic (5R,6S,1'R and 5S,6R,1'S)-2-aminomethyl-6-(1'-hydroxyethyl)-2-penem-3-carboxylic acid previously known from German Offenlegungsschrift No. 2 950 898 are used.
20 mg samples are weighed in glass tubes. The glass tubes are sealed firmly with PVC stoppers and heated in a thermostatted oil bath at 50°. At regular intervals individual glass tubes are removed from the oil bath, the samples are dissolved in 100 ml of doubly distilled water and the penem content is determined by means of HPLC analysis [UV detector: Kratos, 305 nm; injection machine: Wisp; 20 μl charge; integrator: Shimazu, C-R3A; pump: Altex, 2.0 ml/minute; column: Knauer, 25 cm×4 mm, C18 /10 um; eluant: acetonitrile/water 2:98, pH5].

[6] = stability to storage of the solid product; assay type: physicochemical
[7] = Day 0, 50°, solid in sealed glass tube

SMILES	MIC [1] [mg/L]	MIC [2] [mg/L]	ED50 [3] [mg/kg]	half-life [4] [h]	Penem content [5, 7]	Penem content ([5]; Day 1.8, 50°, 2592 min) [%]	Penem content ([5]; Day 3, 50°, 4320 min) [%]	Penem content ([5]; Day 4.5, 50°, 6480 min) [%]	Penem content ([5]; Day 7, 50°, 10080 min) [%]	Penem content ([5]; Day 9, 50°, 12960 min) [%]	Penem content ([5]; Day 12, 50°, 17280 min) [%]	Penem content ([5]; Day 14, 50°, 20160 min) [%]	absorption of water from the air ([6]; approximately normal ambient conditions)	stability under light, heat and air ([6]; relatively long-term action of light, heat (50° C.) and air)
C[C@@H](O)[C@H]1C(=O)N2C(C(=O)O)=C(CN)S[C@H]12 [Compound A, (5R,6S)-2-aminomethyl-6-[(1R)-1-hydroxyethyl]-2-penem-3-carboxylic acid]	0.2 (≈ 0.819 µM)	4 (≈ 16.4 µM)	0.3 to 30	6.75	approx. 100%	99	98	97	95	94	92	91	no tendency to absorb relatively large quantities of water from the air	very stable
C[C@@H](O)[C@H]1C(=O)N2C(C(=O)O)=C(CN)S[C@H]12 (relative stereo) [Compound B, (1'R,5R,6S+1'S,5S,6R)-2-aminomethyl-6-(1'-hydroxyethyl)-2-penem-3-carboxylic acid, reference compound]	0.5 (≈ 2.05 µM)	8 (≈ 32.8 µM)	–	–	approx. 100%	84	78	73	67	64	63	62	–	–
